Common to all, as to assay: Macroscopic current dose–response in inside-out patches from Xenopus oocytes
The target in one experiment is T1, X-α homomeric channels (Bos taurus, UniProt Q00194, A200G/A344S/A378F/A555M/A614G/C169F/D157S/D193E/D538A/D604Q/DEL101-144/DEL91-95/E147F/E148K/E189Q/E196F/E230D/E231L/F201L/F214C/F374V/G160D/G591K/I156V/I181L/I182V/I235R/I530V/I609E/I611V/INS98[…]/K146T/K150R/K151W/K237N/K239I/K346C/K506R/K521Q/K551Q/K564R/K590Q/K596R/K598R/L195F/L199V/L210I/L351F/L583V/M175L/M213T/M592V/M602R/N161D/N165Y/N610S/N613A/P158Q/P173A/Q494R/Q599E/Q97T/R232A/R345F/R369K/R512K/S192D/S205C/S240R/S350C/S371E/S537T/S540G/T162I/T171A/T179I/T217L/T364M/T584A/V153G/V154F/V174S/V208I/V215I/V534A/V535L/Y194N/Y197L/Y541C).
T1 sequence (Q00194 with tags, fused parts or gaps DEL91-95/Q97T/INS98[…]/DEL101-144/K146T/E147F/E148K/K150R/K151W/V153G/V154F/I156V/D157S/P158Q/G160D/N161D/T162I/N165Y/C169F/T171A/P173A/V174S/M175L/T179I/I181L/I182V/E189Q/S192D/D193E/Y194N/L195F/E196F/Y197L/L199V/A200G/F201L/S205C/V208I/L210I/M213T/F214C/V215I/T217L/E230D/E231L/R232A/I235R/K237N/K239I/S240R/A344S/R345F/K346C/S350C/L351F/T364M/R369K/S371E/F374V/A378F/Q494R/K506R/R512K/K521Q/I530V/V534A/V535L/S537T/D538A/S540G/Y541C/K551Q/A555M/K564R/L583V/T584A/K590Q/G591K/M592V/K596R/K598R/Q599E/M602R/D604Q/I609E/N610S/I611V/N613A/A614G): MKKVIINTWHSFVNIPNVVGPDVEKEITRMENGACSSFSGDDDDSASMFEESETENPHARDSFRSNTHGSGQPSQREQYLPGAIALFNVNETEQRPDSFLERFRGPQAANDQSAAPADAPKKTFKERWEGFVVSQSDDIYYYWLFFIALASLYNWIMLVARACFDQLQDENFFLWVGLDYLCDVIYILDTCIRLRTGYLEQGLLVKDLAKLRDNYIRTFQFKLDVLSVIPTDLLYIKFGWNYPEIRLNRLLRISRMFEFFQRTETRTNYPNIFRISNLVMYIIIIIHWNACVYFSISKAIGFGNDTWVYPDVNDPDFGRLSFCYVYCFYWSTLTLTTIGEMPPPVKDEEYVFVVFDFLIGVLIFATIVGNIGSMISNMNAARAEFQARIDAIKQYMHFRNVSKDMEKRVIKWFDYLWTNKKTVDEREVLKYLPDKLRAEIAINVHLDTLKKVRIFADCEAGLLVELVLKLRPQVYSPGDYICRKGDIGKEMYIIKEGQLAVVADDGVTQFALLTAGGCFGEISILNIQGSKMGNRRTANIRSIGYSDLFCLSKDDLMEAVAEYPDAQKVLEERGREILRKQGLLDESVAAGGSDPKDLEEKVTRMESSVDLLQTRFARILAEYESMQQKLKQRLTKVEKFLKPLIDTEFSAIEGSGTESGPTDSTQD
Format: cell-based, chimera of bovine CNG1 and catfish CNG2.

Another experiment deals with T2, X-βR/αC (Bos taurus, UniProt Q00194, A200G/A344S/A378F/A555S/A582V/A614G/C169F/D157S/D193E/D502E/D538A/D577E/D604Q/DEL101-144/DEL91-95/E147F/E148K/E189Q/E196F/E230D/E231L/F201L/F214C/F374V/F533Y/G160D/G591K/I156V/I181L/I182V/I235R/I504V/I530V/I566L/I609E/I611V/INS98[…]/K146T/K150R/K151W/K237N/K239I/K346C/K506R/K518R/K521Q/K554M/K590Q/K596R/K598R/L195F/L199V/L210I/L351F/L548I/M175L/M213T/M580R/M592V/M602R/N161D/N165Y/N610S/N613A/P158Q/P173A/Q599E/Q97T/R232A/R345F/R369K/S192D/S205C/S240R/S350C/S371E/S537G/S540L/S553N/T162I/T171A/T179I/T217L/T364M/T584S/V153G/V154F/V174S/V208I/V215I/V487E/V497T/V534A/Y194N/Y197L).
T2 sequence (Q00194 with tags, fused parts or gaps DEL91-95/Q97T/INS98[…]/DEL101-144/K146T/E147F/E148K/K150R/K151W/V153G/V154F/I156V/D157S/P158Q/G160D/N161D/T162I/N165Y/C169F/T171A/P173A/V174S/M175L/T179I/I181L/I182V/E189Q/S192D/D193E/Y194N/L195F/E196F/Y197L/L199V/A200G/F201L/S205C/V208I/L210I/M213T/F214C/V215I/T217L/E230D/E231L/R232A/I235R/K237N/K239I/S240R/A344S/R345F/K346C/S350C/L351F/T364M/R369K/S371E/F374V/A378F/V487E/V497T/D502E/I504V/K506R/K518R/K521Q/I530V/F533Y/V534A/S537G/D538A/S540L/L548I/S553N/K554M/A555S/I566L/D577E/M580R/A582V/T584S/K590Q/G591K/M592V/K596R/K598R/Q599E/M602R/D604Q/I609E/N610S/I611V/N613A/A614G): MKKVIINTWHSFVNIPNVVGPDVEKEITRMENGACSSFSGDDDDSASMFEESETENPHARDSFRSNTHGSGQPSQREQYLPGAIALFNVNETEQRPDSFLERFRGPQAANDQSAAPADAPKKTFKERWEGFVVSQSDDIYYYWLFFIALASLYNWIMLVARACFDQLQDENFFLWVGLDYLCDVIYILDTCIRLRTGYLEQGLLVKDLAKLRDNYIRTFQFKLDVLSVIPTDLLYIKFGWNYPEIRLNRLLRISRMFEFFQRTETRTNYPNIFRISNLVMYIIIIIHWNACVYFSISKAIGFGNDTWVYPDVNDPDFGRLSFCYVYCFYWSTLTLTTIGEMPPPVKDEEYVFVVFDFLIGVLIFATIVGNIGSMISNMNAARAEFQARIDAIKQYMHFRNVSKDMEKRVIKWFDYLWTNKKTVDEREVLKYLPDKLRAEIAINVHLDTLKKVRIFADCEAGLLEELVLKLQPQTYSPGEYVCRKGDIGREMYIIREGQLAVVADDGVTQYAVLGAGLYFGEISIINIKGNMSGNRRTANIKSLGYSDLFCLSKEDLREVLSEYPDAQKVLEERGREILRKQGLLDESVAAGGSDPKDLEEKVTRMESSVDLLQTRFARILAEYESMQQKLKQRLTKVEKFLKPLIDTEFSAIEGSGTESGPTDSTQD
The class given is cell-based, chimera of bovine CNG1, catfish CNG2 and rat CNG5.

The target in a further experiment is T3, X-αR/βC (Bos taurus, UniProt Q00194, A200G/A344S/A378F/A555M/A612E/C169F/D157S/D193E/D538A/D588Q/D604M/DEL101-144/DEL91-95/E147F/E148K/E189Q/E196F/E230D/E231L/F201L/F214C/F374V/G160D/G591A/G605N/I156V/I181L/I182V/I235R/I530V/I609V/I611A/INS98[…]/K146T/K150R/K151W/K237N/K239I/K346C/K506R/K521Q/K551Q/K564R/K590Q/K598R/L195F/L199V/L210I/L351F/L583V/L593M/L606K/M175L/M213T/M592V/M602L/N161D/N165Y/N613A/P158Q/P173A/Q494R/Q599E/Q97T/R232A/R345F/R369K/R512K/S192D/S205C/S240R/S350C/S371E/S537T/S540G/T162I/T171A/T179I/T217L/T364M/T584A/V153G/V154F/V174S/V208I/V215I/V534A/V535L/Y194N/Y197L/Y541C).
T3 sequence (Q00194 with tags, fused parts or gaps DEL91-95/Q97T/INS98[…]/DEL101-144/K146T/E147F/E148K/K150R/K151W/V153G/V154F/I156V/D157S/P158Q/G160D/N161D/T162I/N165Y/C169F/T171A/P173A/V174S/M175L/T179I/I181L/I182V/E189Q/S192D/D193E/Y194N/L195F/E196F/Y197L/L199V/A200G/F201L/S205C/V208I/L210I/M213T/F214C/V215I/T217L/E230D/E231L/R232A/I235R/K237N/K239I/S240R/A344S/R345F/K346C/S350C/L351F/T364M/R369K/S371E/F374V/A378F/Q494R/K506R/R512K/K521Q/I530V/V534A/V535L/S537T/D538A/S540G/Y541C/K551Q/A555M/K564R/L583V/T584A/D588Q/K590Q/G591A/M592V/L593M/K598R/Q599E/M602L/D604M/G605N/L606K/I609V/I611A/A612E/N613A): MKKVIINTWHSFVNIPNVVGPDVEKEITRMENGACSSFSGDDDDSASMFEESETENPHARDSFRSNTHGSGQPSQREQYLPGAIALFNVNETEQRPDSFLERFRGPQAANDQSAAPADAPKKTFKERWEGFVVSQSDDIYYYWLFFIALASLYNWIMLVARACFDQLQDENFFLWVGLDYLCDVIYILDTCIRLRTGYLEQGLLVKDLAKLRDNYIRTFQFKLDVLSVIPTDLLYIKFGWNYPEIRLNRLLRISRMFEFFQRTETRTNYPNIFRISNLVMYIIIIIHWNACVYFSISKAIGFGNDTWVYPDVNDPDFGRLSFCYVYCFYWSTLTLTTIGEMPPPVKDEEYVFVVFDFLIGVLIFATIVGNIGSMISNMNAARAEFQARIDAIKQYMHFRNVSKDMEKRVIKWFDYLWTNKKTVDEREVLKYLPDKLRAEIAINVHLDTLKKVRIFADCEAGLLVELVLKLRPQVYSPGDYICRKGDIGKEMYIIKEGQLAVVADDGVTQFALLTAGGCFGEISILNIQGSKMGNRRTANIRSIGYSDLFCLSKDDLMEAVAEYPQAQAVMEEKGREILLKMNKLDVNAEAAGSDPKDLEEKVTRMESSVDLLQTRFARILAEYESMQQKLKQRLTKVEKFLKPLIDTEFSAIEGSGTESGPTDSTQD
The class given is cell-based, chimera of bovine CNG1, catfish CNG2 and rat CNG5.

Some results are limits rather than exact numbers.

Turning to `Nc1nc2c(ncn2[C@@H]2O[C@@H]3COP(=O)([O-])O[C@H]3[C@H]2O)c(=O)[nH]1.[Na+]` [cGMP], the “agonist concentration at maximum of steady-state Popen dose–response curve” value on X-α homomeric channels is recorded as approximately 3 mM. The Desensitization entry on X-α homomeric channels (agonist up to 30 mM) was “Yes”; on X-βR/αC, “No”; on X-αR/βC, “Yes”. Besides, the “agonist concentration at which macroscopic current decays (desensitization)” value on X-α homomeric channels (steady-state level lower than in 3 mM cGMP) is not below 10 mM. The Hill coefficient h is given as 1.210 ± 0.046 on X-α homomeric channels (−100 mV, Hill fit of composite dataset, cGMP: only data ≤3 mM) and 1.95 ± 0.22 at X-βR/αC (one patch (Fig. 6 B2), −100 mV, Hill fit ± SE).

The values are drawn from paper PMC2233835 (The Journal of General Physiology, 2001).
